Values quoted from earlier work in patent publication US20050287096A1, “Method for improving the appearance of skin” (priority 2004, published 2005).

Tested on: knee abrasions
Details: ointment containing 5% sucralfate, topical

sucralfate
stopping of fusion from the abrasions (knee abrasions caused by falls during a basketball game): fusion to be stopped after twenty four hours
healing of the abrasions (period after fusion stopped): good healing occurring over a three day period
